For the test, the target named is T1, KRAS G12C 1-169, his-tagged protein, GDP-loaded (Homo sapiens, UniProt P01116, G12C).
T1 construct: KRAS G12C 1-169, his-tagged protein, GDP-loaded
The test is described as follows: Biochemical assay: covalent binding of compounds to KRAS G12C, analysed by mass spectrometry. Conditions: binding measured at 30 min (compounds 247-375). The protocol: Compounds were tested for activity as follows:
Compounds were diluted to 50× final test concentration in DMSO in 96-well storage plates. […] Reactions were mixed carefully and thoroughly by pipetting up/down with a 200 μl multi-channel pipettor. The plate was sealed well with aluminum plate seal, and stored in drawer at room temperature for 30 min, 2 hour or 24 hrs. 51 μl of 2% formic acid (Fisher cat # A117) in DI H2O was then added to each well followed by mixing with a pipette. The plate was then resealed with aluminum seal and stored on dry ice until analyzed as described below.
The above described assays were analyzed by mass spectrometry according to the following procedure:
The MS instrument is set to positive polarity, 2 GHz resolution, and low mass (1700) mode and allowed to equilibrate for 30 minutes. The instrument is then calibrated, switched to acquisition mode and the appropriate method loaded.
After another 30 minute equilibration time, a blank batch (i.e., buffer) is run to ensure equipment is operating properly. The samples are thawed at 37° C. for 10 minutes, briefly centrifuged, and transfer to the bench top. Wells A1 and H12 are spiked with 1 uL 500 uM internal standard peptide, and the plates centrifuged at 2000×g for 5 minutes. The method is then run and masses of each individual well recorded.
The masses (for which integration data is desired) for each well are pasted into the platemap and exported from the analysis. Masses for the internal standards are exported as well. The data at 50 ppm is extracted for the +19 charge state, and identity of well A1 is assigned using the internal standard spike and integrated. Peak data is exported as a TOF list and the above steps are repeated individually, for the +20, 21, 22, 23, 24, and 25 charge states.

T1 sequence (P01116 1-169 isoform P01116-2 G12C): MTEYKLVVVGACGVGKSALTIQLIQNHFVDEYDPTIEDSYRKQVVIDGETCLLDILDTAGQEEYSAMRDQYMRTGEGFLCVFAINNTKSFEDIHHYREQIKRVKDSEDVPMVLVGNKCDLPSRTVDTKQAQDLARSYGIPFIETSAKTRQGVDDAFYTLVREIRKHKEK

For the compound `C=CC(=O)N1CCN(c2nc(NC3CCN(CC(F)(F)F)C3)nc3c(F)c(-c4cc(O)cc5ccccc45)c(Cl)cc23)CC1` (stereo not shown) [Compound 349, 1-(4-(6-chloro-8-fluoro-7-(3-hydroxynaphthalen-1-yl)-2-(1-(2,2,2-trifluoroethyl)pyrrolidin-3-ylamino)quinazolin-4-yl)piperazin-1-yl)prop-2-en-1-one], the Binding % result was “+++ (+++ indicates binding activity greater than 50% and up to 75%)”.

For the compound `C=CC(=O)N1CCN(c2cnnc3cc(-c4c(C)ccc5[nH]ncc45)c(C(F)(F)F)cc23)CC1` [Compound 350, 1-(4-(7-(5-methyl-1H-indazol-4-yl)-6-(trifluoromethyl)cinnolin-4-yl)piperazin-1-yl)prop-2-en-1-one], the Binding % result was “++++ (++++ indicates binding activity greater than 75%)”. The same measure for `C=CC(=O)N1CCN(c2cnnc3cc(-c4cc(O)cc5ccccc45)c(C(F)(F)F)cc23)CC1` [Compound 351, 1-(4-(7-(3-hydroxynaphthalen-1-yl)-6-(trifluoromethyl)cinnolin-4-yl)piperazin-1-yl)prop-2-en-1-one]: “++++ (++++ indicates binding activity greater than 75%)”; for `C=CC(=O)N1CCN(c2nc(NCCc3nccn3C)nc3c(F)c(-c4c(C)ccc5[nH]ncc45)c(Cl)cc23)CC1` [Compound 352, 1-(4-(6-chloro-8-fluoro-2-(2-(1-methyl-1H-imidazol-2-yl)ethylamino)-7-(5-methyl-1H-indazol-4-yl)quinazolin-4-yl)piperazin-1-yl)prop-2-en-1-one]: “++++ (++++ indicates binding activity greater than 75%)”. The same measure for `C=CC(=O)N1CCN(c2ncnc3c(F)c(-c4c(O)cccc4F)c(Cl)cc23)CC1` [Compound 353, (S)-1-(4-(6-chloro-8-fluoro-7-(2-fluoro-6-hydroxyphenyl)quinazolin-4-yl)piperazin-1-yl)prop-2-en-1-one]: “++++ (++++ indicates binding activity greater than 75%)”; for `C=CC(=O)N1CCN(c2nc(NC3CCN(CC(F)(F)F)C3)nc3c(F)c(-c4c(C)ccc5[nH]ncc45)c(Cl)cc23)CC1` (stereo not shown) [Compound 354, 1-(4-(6-chloro-8-fluoro-7-(5-methyl-1H-indazol-4-yl)-2-(1-(2,2,2-trifluoroethyl)pyrrolidin-3-ylamino)quinazolin-4-yl)piperazin-1-yl)prop-2-en-1-one]: “++++ (++++ indicates binding activity greater than 75%)”; for `C=CC(=O)N1CCN(c2nc(NCCN(C)C)nc3c(F)c(-c4cc(O)cc5ccccc45)c(Cl)cc23)CC1` [Compound 355, 1-(4-(6-chloro-2-(2-(dimethylamino)ethylamino)-8-fluoro-7-(3-hydroxynaphthalen-1-yl)quinazolin-4-yl)piperazin-1-yl)prop-2-en-1-one]: “++++ (++++ indicates binding activity greater than 75%)”. With `C=CC(=O)N1CCN(c2nc(NCC(F)(F)F)nc3c(F)c(-c4c(C)ccc5[nH]ncc45)c(Cl)cc23)CC1` [Compound 356, 1-(4-(6-chloro-8-fluoro-7-(5-methyl-1H-indazol-4-yl)-2-(2,2,2-trifluoroethylamino)quinazolin-4-yl)piperazin-1-yl)prop-2-en-1-one], the Binding % result is “+++ (+++ indicates binding activity greater than 50% and up to 75%)”. Next, `C=CC(=O)N1CCN(c2nc(OCCCN3CCOCC3)nc3c(F)c(-c4c(C)ccc5[nH]ncc45)c(Cl)cc23)CC1` [Compound 357, 1-(4-(6-chloro-8-fluoro-7-(5-methyl-1H-indazol-4-yl)-2-(3-morpholinopropoxy)quinazolin-4-yl)piperazin-1-yl)prop-2-en-1-one]: “++++ (++++ indicates binding activity greater than 75%)”; `C=CC(=O)N1CCN(c2nc(OCCN3CCCC3)nc3c(F)c(-c4c(C)ccc5[nH]ncc45)c(Cl)cc23)CC1` [Compound 358, 1-(4-(6-chloro-8-fluoro-7-(5-methyl-1H-indazol-4-yl)-2-(2-(pyrrolidin-1-yl)ethoxy)quinazolin-4-yl)piperazin-1-yl)prop-2-en-1-one]: “++++ (++++ indicates binding activity greater than 75%)”. Next, `C=CC(=O)N1CCN(c2ncnc3c(F)c(-c4c(F)ccc5c(C)n[nH]c45)c(Cl)cc23)CC1` [Compound 359, 1-(4-(6-chloro-8-fluoro-7-(6-fluoro-3-methyl-1H-indazol-7-yl)quinazolin-4-yl)piperazin-1-yl)prop-2-en-1-one]: “++++ (++++ indicates binding activity greater than 75%)”; `C=CC(=O)N1CCN(c2nc(NC3CCN(C)C3)nc3c(F)c(-c4cc(O)cc5ccccc45)c(Cl)cc23)CC1` (stereo not shown) [Compound 360, 1-(4-(6-chloro-8-fluoro-7-(3-hydroxynaphthalen-1-yl)-2-(1-methylpyrrolidin-3-ylamino)quinazolin-4-yl)piperazin-1-yl)prop-2-en-1-one]: “++++ (++++ indicates binding activity greater than 75%)”.

With `C=CC(=O)N1CCN(c2nc(N(C)CCN(C)C)nc3c(F)c(-c4cc(O)cc5ccccc45)c(Cl)cc23)CC1` [Compound 361, 1-(4-(6-chloro-2-((2-(dimethylamino)ethyl)(meth-yl)amino)-8-fluoro-7-(3-hydroxynaphthalen-1-yl)quinazolin-4-yl)piperazin-1-yl)prop-2-en-1-one], the Binding % result is recorded as “++++ (++++ indicates binding activity greater than 75%)”.

As for `C=CC(=O)N1CCN(c2ncnc3c(F)c(-c4c(F)cccc4CN(C)C)c(Cl)cc23)CC1` [Compound 362, 1-(4-(6-chloro-7-(2-((dimethylamino)methyl)-6-fluorophenyl)-8-fluoroquinazolin-4-yl)piperazin-1-yl)prop-2-en-1-one], the Binding % entry was “++ (++ indicates binding activity greater than 25% and up to 50%)”. Turning to `C=CC(=O)N1CCN(c2nc(NC3CCN(C)CC3)nc3c(F)c(-c4c(C)ccc5[nH]ncc45)c(Cl)cc23)CC1` [Compound 363, 1-(4-(6-chloro-8-fluoro-7-(5-methyl-1H-indazol-4-yl)-2-(1-methylpiperidin-4-ylamino)quinazolin-4-yl)piperazin-1-yl)prop-2-en-1-one], the Binding % result was “++++ (++++ indicates binding activity greater than 75%)”. Next, `C=CC(=O)N1CCN(c2nc(NC3CCOCC3)nc3c(F)c(-c4c(C)ccc5[nH]ncc45)c(Cl)cc23)CC1` [Compound 365, 1-(4-(6-chloro-8-fluoro-7-(5-methyl-1H-indazol-4-yl)-2-(tetrahydro-2H-pyran-4-ylamino)quinazolin-4-yl)piperazin-1-yl)prop-2-en-1-one]: “++++ (++++ indicates binding activity greater than 75%)”; `C=CC(=O)N1CCN(c2nc(OCCNC(C)=O)nc3c(F)c(-c4c(C)ccc5[nH]ncc45)c(Cl)cc23)CC1` [Compound 366, N-(2-(4-(4-acryloylpiperazin-1-yl)-6-chloro-8-fluoro-7-(5-methyl-1H-indazol-4-yl)quinazolin-2-yloxy)ethyl)acetamide]: “++++ (++++ indicates binding activity greater than 75%)”. The same measure for `C=CC(=O)N1CCN(c2nc(OCCN(C)C)nc3c(F)c(-c4c(C)ccc5[nH]ncc45)c(Cl)cc23)CC1C` (stereo not shown) [Compound 367, 1-(4-(6-chloro-2-(2-(dimethylamino)ethoxy)-8-fluoro-7-(5-methyl-1H-indazol-4-yl)quinazolin-4-yl)-2-methylpiperazin-1-yl)prop-2-en-1-one]: “++++ (++++ indicates binding activity greater than 75%)”.

For `C=CC(=O)N1CCN(c2ncnc3c(F)c(-c4c(F)ccc5cn[nH]c45)c(Cl)cc23)CC1` [Compound 368, 1-(4-(6-chloro-8-fluoro-7-(6-fluoro-1H-indazol-7-yl)quinazolin-4-yl)piperazin-1-yl)prop-2-en-1-one], the Binding % result is listed as “++++ (++++ indicates binding activity greater than 75%)”. On to `C=CC(=O)N1CCN(c2nc(OCCc3nccn3C)nc3c(F)c(-c4c(C)ccc5[nH]ncc45)c(Cl)cc23)CC1` [Compound 369, 1-(4-(6-chloro-8-fluoro-2-(2-(1-methyl-1H-imidazol-2-yl)ethoxy)-7-(5-methyl-1H-indazol-4-yl)quinazolin-4-yl)piperazin-1-yl)prop-2-en-1-one], for which the Binding % result was “++++ (++++ indicates binding activity greater than 75%)”. The same measure for `C=CC(=O)N1CCN(c2ncnc3c(F)c(-c4c(O)cccc4F)c(Cl)cc23)CC1` [Compound 370, (R)-1-(4-(6-chloro-8-fluoro-7-(2-fluoro-6-hydroxyphenyl)quinazolin-4-yl)piperazin-1-yl)prop-2-en-1-one]: “+ (+ indicates binding activity from 5% to 25%)”; for `C=CC(=O)N1CCN(c2nc(N(C)CCN(C)C)nc3c(F)c(-c4c(C)ccc5[nH]ncc45)c(Cl)cc23)CC1` [Compound 371, 1-(4-(6-chloro-2-((2-(dimethylamino)ethyl)(meth-yl)amino)-8-fluoro-7-(5-methyl-1H-indazol-4-yl)quinazolin-4-yl)piperazin-1-yl)prop-2-en-1-one]: “++ (++ indicates binding activity greater than 25% and up to 50%)”.
